Results reported in ChEMBL document CHEMBL1201861, “Genomics of Drug Sensitity in Cancer screening data, Wellcome Trust Sanger Institute”.

How the values were obtained:
Test in all cases: cells
LS-513 = type: functional, cell-based, Homo sapiens; settings: Homo sapiens, LS-513
Description: SANGER: Inhibition of human LS-513 cell growth in a cell viability assay.

LU-99A = type: functional, cell-based, Homo sapiens; settings: Homo sapiens, LU-99A;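 also: growth inhibition of LU-99A cells, read out with a cell viability assay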
Description: SANGER: Inhibition of human LU-99A cell growth in a cell viability assay.

8305C = type: functional, cell-based, Homo sapiens; settings: Homo sapiens, 8305C
Description: SANGER: Inhibition of human 8305C cell growth in a cell viability assay.

HuO-3N1 = type: functional, cell-based, Homo sapiens; settings: Homo sapiens, HuO-3N1;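 also: cell viability readout used to measure how strongly compounds suppress proliferation of human HuO-3N1 cells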
Description: SANGER: Inhibition of human HuO-3N1 cell growth in a cell viability assay.

NCI-H520 = type: functional, cell-based, Homo sapiens; settings: Homo sapiens, NCI-H520;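 also: growth inhibition of NCI-H520 cells, measured by a cell viability assay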
Description: SANGER: Inhibition of human NCI-H520 cell growth in a cell viability assay.

HT-3 = type: functional, cell-based, Homo sapiens; settings: Homo sapiens, HT-3;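 also: growth inhibition measured with a cell viability readout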
Description: SANGER: Inhibition of human HT-3 cell growth in a cell viability assay.

DB = type: functional, cell-based; settings: Homo sapiens
Description: SANGER: Inhibition of human DB cell growth in a cell viability assay.

NB5 = type: functional, cell-based, Homo sapiens; settings: Homo sapiens, NB5;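 also: growth inhibition of NB5 cells, read out as cell viability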
Description: SANGER: Inhibition of human NB5 cell growth in a cell viability assay.

KYSE-410 = type: functional, cell-based, Homo sapiens; settings: Homo sapiens, KYSE-410;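 also: growth inhibition of KYSE-410 cells, measured through a cell viability readout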
Description: SANGER: Inhibition of human KYSE-410 cell growth in a cell viability assay.

ETK-1 = type: functional, cell-based, Homo sapiens; settings: Homo sapiens, ETK-1;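 also: growth inhibition of human ETK-1 cells, read out with a cell viability assay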
Description: SANGER: Inhibition of human ETK-1 cell growth in a cell viability assay.

CAL-51 = type: functional, cell-based, Homo sapiens; settings: Homo sapiens, CAL-51;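 also: human CAL-51 cell line, growth inhibition read out via a cell viability assay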
Description: SANGER: Inhibition of human CAL-51 cell growth in a cell viability assay.

CAL-62 = type: functional, cell-based, Homo sapiens; settings: Homo sapiens, CAL-62;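 also: growth inhibition of CAL-62 cells, read out with a cell viability assay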
Description: SANGER: Inhibition of human CAL-62 cell growth in a cell viability assay.

SW48 = type: functional, cell-based, Homo sapiens; settings: Homo sapiens, SW48;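 also: growth inhibition of SW48 cells, read out with a cell viability assay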
Description: SANGER: Inhibition of human SW48 cell growth in a cell viability assay.

SNU-449 = type: functional, cell-based, Homo sapiens; settings: Homo sapiens, SNU-449
Description: SANGER: Inhibition of human SNU-449 cell growth in a cell viability assay.

COLO-679 = type: functional, cell-based, Homo sapiens; settings: Homo sapiens, COLO-679
Description: SANGER: Inhibition of human COLO-679 cell growth in a cell viability assay.

CAL-27 = type: functional, cell-based, Homo sapiens; settings: Homo sapiens, CAL-27;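 also: Viability-based readout, IC50 reflecting inhibition of CAL-27 cell growth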
Description: SANGER: Inhibition of human CAL-27 cell growth in a cell viability assay.

BB49-HNC = type: functional, cell-based, Homo sapiens; settings: Homo sapiens, BB49-HNC;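 also: cell viability assay read-out, reported as inhibition of BB49-HNC cell growth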
Description: SANGER: Inhibition of human BB49-HNC cell growth in a cell viability assay.

C3A = type: functional, cell-based, Homo sapiens; settings: Homo sapiens, C3A;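 also: growth inhibition of C3A human cells, quantified with a cell viability readout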
Description: SANGER: Inhibition of human C3A cell growth in a cell viability assay.

MHH-PREB-1 = type: functional, cell-based; settings: Homo sapiens;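 also: cell viability assay measuring inhibition of proliferation of human MHH-PREB-1 cells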
Description: SANGER: Inhibition of human MHH-PREB-1 cell growth in a cell viability assay.

ES8 = type: functional, cell-based, Homo sapiens; settings: Homo sapiens, ES8;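 also: growth inhibition of human ES8 cells, read out with a cell viability assay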
Description: SANGER: Inhibition of human ES8 cell growth in a cell viability assay.

LC-2-ad = type: functional, cell-based, Homo sapiens; settings: Homo sapiens, LC-2-ad;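 also: growth inhibition of human LC-2-ad cells, read out with a cell viability assay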
Description: SANGER: Inhibition of human LC-2-ad cell growth in a cell viability assay.

IST-MEL1 = type: functional, cell-based, Homo sapiens; settings: Homo sapiens, IST-MEL1;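 also: growth inhibition of the cell line, read out with a cell viability assay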
Description: SANGER: Inhibition of human IST-MEL1 cell growth in a cell viability assay.

MHH-ES-1 = type: functional, cell-based, Homo sapiens; settings: Homo sapiens, MHH-ES-1;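 also: cell growth inhibition measured by a cell viability assay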
Description: SANGER: Inhibition of human MHH-ES-1 cell growth in a cell viability assay.

C-33-A = type: functional, cell-based, Homo sapiens; settings: Homo sapiens, C-33-A;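 also: cell viability assay measuring growth inhibition of C-33-A cells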
Description: SANGER: Inhibition of human C-33-A cell growth in a cell viability assay.

SW-620 = type: functional, cell-based, Homo sapiens; settings: Homo sapiens, SW-620;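 also: growth inhibition of human SW-620 cells, measured by a cell viability assay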
Description: SANGER: Inhibition of human SW620 cell growth in a cell viability assay.

KNS-42 = type: functional, cell-based, Homo sapiens; settings: Homo sapiens, KNS-42;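 also: growth inhibition of KNS-42 cells, read out with a cell viability assay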
Description: SANGER: Inhibition of human KNS-42 cell growth in a cell viability assay.

A498 = type: functional, cell-based, Homo sapiens; settings: Homo sapiens, A498;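 also: growth inhibition of human A498 cells, read out with a cell viability assay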
Description: SANGER: Inhibition of human A498 cell growth in a cell viability assay.

CHP-212 = type: functional, cell-based, Homo sapiens; settings: Homo sapiens, CHP-212
Description: SANGER: Inhibition of human CHP-212 cell growth in a cell viability assay.

NCI-H2126 = type: functional, cell-based, Homo sapiens; settings: Homo sapiens, NCI-H2126;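 also: growth inhibition of the cancer cell line, determined with a cell viability readout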
Description: SANGER: Inhibition of human NCI-H2126 cell growth in a cell viability assay.

EW-13 = type: functional, cell-based; settings: Homo sapiens;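 also: growth inhibition of EW-13 cells, read out with a cell viability assay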
Description: SANGER: Inhibition of human EW-13 cell growth in a cell viability assay.

NCI-H526 = type: functional, cell-based; settings: Homo sapiens;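 also: growth inhibition of the human NCI-H526 cell line, measured by a cell viability assay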
Description: SANGER: Inhibition of human NCI-H526 cell growth in a cell viability assay.

ES4 = type: functional, cell-based, Homo sapiens; settings: Homo sapiens, ES4;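 also: growth inhibition of human ES4 cells, read out by a cell viability assay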
Description: SANGER: Inhibition of human ES4 cell growth in a cell viability assay.

MZ1-PC = type: functional, cell-based, Homo sapiens; settings: Homo sapiens, MZ1-PC;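 also: cell viability assay measuring growth inhibition of human MZ1-PC cells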
Description: SANGER: Inhibition of human MZ1-PC cell growth in a cell viability assay.

MKN-28 = type: functional, cell-based, Homo sapiens; settings: Homo sapiens, MKN-28;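 also: cell viability assay read-out, IC50 reflects suppression of growth of human MKN-28 cells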
Description: SANGER: Inhibition of human MKN28 cell growth in a cell viability assay.

KYSE-70 cell line = type: functional, cell-based, Homo sapiens; settings: Homo sapiens, KYSE-70;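 also: cell viability assay read-out, with IC50 expressing suppression of KYSE-70 cell growth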
Description: SANGER: Inhibition of human KYSE-70 cell growth in a cell viability assay.

LOX IMVI = type: functional, cell-based; settings: Homo sapiens
Description: SANGER: Inhibition of human LOXIMVI cell growth in a cell viability assay.

KLE = type: functional, cell-based, Homo sapiens; settings: Homo sapiens, KLE;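 also: growth inhibition of human KLE cells, read out with a cell viability assay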
Description: SANGER: Inhibition of human KLE cell growth in a cell viability assay.

BB30-HNC = type: functional, cell-based, Homo sapiens; settings: Homo sapiens, BB30-HNC;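 also: growth inhibition of the cultured cell line, read out by a cell viability assay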
Description: SANGER: Inhibition of human BB30-HNC cell growth in a cell viability assay.

KE-37 = type: functional, cell-based; settings: Homo sapiens;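 also: growth inhibition of KE-37 cells, read out with a cell viability assay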
Description: SANGER: Inhibition of human KE-37 cell growth in a cell viability assay.

BHT-101 = type: functional, cell-based, Homo sapiens; settings: Homo sapiens, BHT-101
Description: SANGER: Inhibition of human BHT-101 cell growth in a cell viability assay.

SBC-1 = type: functional, cell-based; settings: Homo sapiens;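 also: cell viability assay measuring growth inhibition of the SBC-1 cell line, IC50 being the concentration that halves growth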
Description: SANGER: Inhibition of human SBC-1 cell growth in a cell viability assay.

DEL = type: functional, cell-based; settings: Homo sapiens;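 also: growth inhibition of the human DEL cell line, read out with a cell viability assay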
Description: SANGER: Inhibition of human DEL cell growth in a cell viability assay.

Detroit 562 = type: functional, cell-based, Homo sapiens; settings: Homo sapiens, Detroit 562;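 also: growth inhibition of human Detroit 562 cells, read out by a cell viability assay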
Description: SANGER: Inhibition of human Detroit562 cell growth in a cell viability assay.

SK-MEL-24 = type: functional, cell-based; settings: Homo sapiens;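 also: growth inhibition read out by a cell viability assay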
Description: SANGER: Inhibition of human SK-MEL-24 cell growth in a cell viability assay.

NCI-H1693 = type: functional, cell-based, Homo sapiens; settings: Homo sapiens, NCI-H1693;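 also: growth inhibition of the human cell line, read out with a cell viability assay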
Description: SANGER: Inhibition of human NCI-H1693 cell growth in a cell viability assay.

MEG-01 = type: functional, cell-based; settings: Homo sapiens;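 also: growth inhibition of MEG-01 cells, read out by a cell viability assay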
Description: SANGER: Inhibition of human MEG-01 cell growth in a cell viability assay.

VM-CUB-1 = type: functional, cell-based; settings: Homo sapiens;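 also: cell viability assay measuring growth inhibition of the human VM-CUB-1 cell line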
Description: SANGER: Inhibition of human VM-CUB-1 cell growth in a cell viability assay.

SW13 = type: functional, cell-based, Homo sapiens; settings: Homo sapiens, SW13;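 also: IC50 is inhibition of SW13 cell growth, read out with a cell viability assay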
Description: SANGER: Inhibition of human SW13 cell growth in a cell viability assay.

T98G = type: functional, cell-based, Homo sapiens; settings: Homo sapiens, T98G;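 also: growth inhibition of T98G cells, read out by a cell viability assay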
Description: SANGER: Inhibition of human T98G cell growth in a cell viability assay.

A2780 = type: functional, cell-based, Homo sapiens; settings: Homo sapiens, A2780;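 also: growth inhibition of A2780 cells, read out with a cell viability assay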
Description: SANGER: Inhibition of human A2780 cell growth in a cell viability assay.

HO-1-N-1 = type: functional, cell-based, Homo sapiens; settings: Homo sapiens, HO-1-N-1;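 also: growth inhibition of human HO-1-N-1 cells, read out with a cell viability assay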
Description: SANGER: Inhibition of human HO-1-N-1 cell growth in a cell viability assay.

YKG-1 = type: functional, cell-based, Homo sapiens; settings: Homo sapiens, YKG-1;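 also: cell growth inhibition, read out with a viability assay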
Description: SANGER: Inhibition of human YKG-1 cell growth in a cell viability assay.

COc1ccc(-c2ccc3c(N4CCOC[C@@H]4C)nc(N4CCOC[C@@H]4C)nc3n2)cc1CO [AZD-8055]
IC50 (LS-513): > 2000 nM | IC50 (LU-99A): 776 nM | IC50 (8305C): 708 nM | IC50 (HuO-3N1): 384 nM | IC50 (NCI-H520): 348 nM | IC50 (HT-3): 1660 nM | IC50 (DB): 500 nM | IC50 (NB5): 703 nM | IC50 (KYSE-410): 1270 nM | IC50 (ETK-1): 894 nM | IC50 (CAL-51): 197 nM | IC50 (CAL-62): 799 nM | IC50 (SW48): 1110 nM | IC50 (SNU-449): 959 nM | IC50 (COLO-679): > 2000 nM | IC50 (CAL-27): > 2000 nM | IC50 (BB49-HNC): 1750 nM | IC50 (C3A): > 2000 nM | IC50 (MHH-PREB-1): 747 nM | IC50 (ES8): 366 nM | IC50 (LC-2-ad): 221 nM | IC50 (IST-MEL1): 1190 nM | IC50 (MHH-ES-1): 835 nM | IC50 (C-33-A): 904 nM | IC50 (SW-620): > 2000 nM | IC50 (KNS-42): > 2000 nM | IC50 (A498): > 2000 nM | IC50 (CHP-212): 437 nM | IC50 (NCI-H2126): 1680 nM | IC50 (EW-13): > 2000 nM | IC50 (NCI-H526): > 2000 nM | IC50 (ES4): 453 nM | IC50 (MZ1-PC): > 2000 nM | IC50 (MKN-28): > 2000 nM | IC50 (KYSE-70 cell line): 1740 nM | IC50 (LOX IMVI): 551 nM | IC50 (KLE): > 2000 nM | IC50 (BB30-HNC): 1860 nM | IC50 (KE-37): 432 nM | IC50 (BHT-101): 408 nM | IC50 (SBC-1): 45.8 nM | IC50 (DEL): 968 nM | IC50 (Detroit 562): 1190 nM | IC50 (SK-MEL-24): > 2000 nM | IC50 (NCI-H1693): 1980 nM | IC50 (MEG-01): > 2000 nM | IC50 (VM-CUB-1): 473 nM | IC50 (SW13): 984 nM | IC50 (T98G): 1010 nM | IC50 (A2780): 1720 nM | IC50 (HO-1-N-1): 681 nM | IC50 (YKG-1): 1610 nM

O=C(NOCC1CC1)c1ccc(F)c(F)c1Nc1ccc(I)cc1Cl [CI-1040]
IC50 (LS-513): 1450 nM | IC50 (LU-99A): 5660 nM | IC50 (8305C): 7100 nM | IC50 (HuO-3N1): > 10000 nM | IC50 (NCI-H520): > 10000 nM | IC50 (HT-3): > 10000 nM | IC50 (DB): 2590 nM | IC50 (NB5): 4600 nM | IC50 (KYSE-410): > 10000 nM | IC50 (ETK-1): > 10000 nM | IC50 (CAL-51): > 10000 nM | IC50 (CAL-62): 4070 nM | IC50 (SW48): 6950 nM | IC50 (SNU-449): > 10000 nM | IC50 (COLO-679): 327 nM | IC50 (CAL-27): 2390 nM | IC50 (BB49-HNC): > 10000 nM | IC50 (C3A): > 10000 nM | IC50 (MHH-PREB-1): 4120 nM | IC50 (ES8): > 10000 nM | IC50 (LC-2-ad): > 10000 nM | IC50 (IST-MEL1): 8000 nM | IC50 (MHH-ES-1): > 10000 nM | IC50 (C-33-A): > 10000 nM | IC50 (SW-620): 1140 nM | IC50 (KNS-42): > 10000 nM | IC50 (A498): > 10000 nM | IC50 (CHP-212): 28.9 nM | IC50 (NCI-H2126): 9010 nM | IC50 (EW-13): 2560 nM | IC50 (NCI-H526): > 10000 nM | IC50 (ES4): 8870 nM | IC50 (MZ1-PC): > 10000 nM | IC50 (MKN-28): > 10000 nM | IC50 (KYSE-70 cell line): > 10000 nM | IC50 (LOX IMVI): 1890 nM | IC50 (KLE): > 10000 nM | IC50 (BB30-HNC): > 10000 nM | IC50 (KE-37): > 10000 nM | IC50 (BHT-101): 286 nM | IC50 (SBC-1): 8870 nM | IC50 (DEL): > 10000 nM | IC50 (Detroit 562): > 10000 nM | IC50 (SK-MEL-24): 328 nM | IC50 (NCI-H1693): 8920 nM | IC50 (MEG-01): 9250 nM | IC50 (VM-CUB-1): > 10000 nM | IC50 (SW13): > 10000 nM | IC50 (T98G): 9000 nM | IC50 (A2780): 498 nM | IC50 (HO-1-N-1): 1520 nM | IC50 (YKG-1): 9750 nM
